Measurements reported in the NIST ThermoML archive (doi:10.1016/j.jct.2015.08.015).

Details: Liquid, Ebulliometric method (Recirculating still)

CC=CCC#N [3-pentenenitrile]
Details | vapor or sublimation pressure [kPa]
339.24 K | 7.588
344.85 K | 9.491
353.91 K | 13.48
362.45 K | 18.32
368.92 K | 22.91
375.61 K | 28.8
382.01 K | 35.37
386.13 K | 40.09
388.17 K | 42.83
391.42 K | 47.08
394.31 K | 51.62
398.64 K | 57.83
402.51 K | 65.49
407.31 K | 74.49
409.72 K | 80.01
412.88 K | 86.78
414.32 K | 90.5
417.51 K | 97.9
